Data: ChEMBL document CHEMBL4651402, “Screening of ~5500 FDA-approved drugs and clinical candidates for anti-SARS-CoV-2 activity” (2021)

Test system: SARS-CoV-2
Assay: microbe, parasite or virus in culture
Details: Severe acute respiratory syndrome coronavirus 2, Vero C1008, 48 h

SMILES | IC50 | IC50 (read-out: pIC50 (converted))
C[C@]12CC[C@H](O)CC1=CC[C@@H]1[C@@H]2CC[C@]2(C)C(c3cccnc3)=CC[C@@H]12 [ABIRATERONE] | > 20 µM | > 20 µM
C=CC(=O)Nc1cccc(Oc2nc(Nc3ccc(N4CCN(C)CC4)c(F)c3)nc3[nH]ccc23)c1 [ABIVERTINIB] | > 20 µM | > 20 µM
CCCc1c(OCCCCCOc2cc3c(cc2C(C)=O)CCC(C(=O)O)O3)ccc(C(C)=O)c1O (stereo not drawn) [ABLUKAST] | > 20 µM | > 20 µM
CCCS(=O)(=O)N[C@H]1C[C@@H](N(C)c2ncnc3[nH]ccc23)C1 [ABROCITINIB] | > 20 µM | > 20 µM
CN(C)CC[C@H](CSc1ccccc1)Nc1ccc(S(=O)(=O)NC(=O)c2ccc(N3CCN(Cc4ccccc4-c4ccc(Cl)cc4)CC3)cc2)cc1[N+](=O)[O-] [ABT 737] | > 20 µM | > 20 µM
c1ccc(N2CCN(Cc3nc4ccccc4[nH]3)CC2)nc1 [ABT-724] | > 20 µM | > 20 µM
COc1ccc(S(=O)(=O)Nc2cccnc2Nc2ccc(O)cc2)cc1 [ABT-751] | > 20 µM | > 20 µM
Cc1c(NC(=O)OC[C@@H]2COCCN2)cn2ncnc(Nc3ccc4c(cnn4Cc4cccc(F)c4)c3)c12 [AC-480] | > 20 µM | > 20 µM
COc1ccc(-c2cc(=O)c3c(O)cc(O)cc3o2)cc1 [ACACETIN] | > 20 µM | > 20 µM
NC(=O)c1ncn([C@@H]2O[C@H](CO)[C@@H](O)[C@H]2O)c1N [ACADESINE] | > 20 µM | > 20 µM
CCCC(=O)Nc1ccc(OCC(O)CNC(C)C)c(C(C)=O)c1 (stereo not drawn) [ACEBUTOLOL] | > 20 µM | > 20 µM
CCN(CC)CCNC(=O)c1ccc(NC(C)=O)cc1 [ACECAINIDE] | > 20 µM | > 20 µM
CC(=O)OC1CN2CCC1CC2 (stereo not drawn) [ACECLIDINE] | > 20 µM | > 20 µM
O=C(O)COC(=O)Cc1ccccc1Nc1c(Cl)cccc1Cl [ACECLOFENAC] | > 20 µM | > 20 µM
CC(=O)Nc1ccc(S(=O)(=O)c2ccc(NC(C)=O)cc2)cc1 [ACEDAPSONE] | > 20 µM | > 20 µM
Nc1ccc(S(=O)(=O)c2ccc(NCC(=O)O)cc2)cc1 [ACEDIASULFONE] | > 20 µM | > 20 µM
CC(=O)Nc1ccc(C(=O)O)cc1 [ACEDOBEN] | > 20 µM | > 20 µM
Cn1c(=O)c2c(ncn2CC(=O)O)n(C)c1=O [ACEFYLLINE] | > 20 µM | > 20 µM
CC(=O)NC(CCC(=O)O)C(=O)O (stereo not drawn) [ACEGLUMATE] | > 20 µM | > 20 µM
COc1ccc2c(c1)c(CC(=O)OCC(=O)O)c(C)n2C(=O)c1ccc(Cl)cc1 [ACEMETACIN] | > 20 µM | > 20 µM
CC(=O)CC(c1ccc([N+](=O)[O-])cc1)c1c(O)c2ccccc2oc1=O (stereo not drawn) [ACENOCOUMAROL] | > 20 µM | > 20 µM
CC(=O)Nc1ccc(O)cc1 [ACETAMINOPHEN] | > 20 µM | > 20 µM

SMILES | IC50 | IC50 (read-out: pIC50 (converted))
CC(=O)Nc1ccccc1 [ACETANILIDE] | > 20 µM | > 20 µM
CC(=O)Nc1nnc(S(N)(=O)=O)s1 [ACETAZOLAMIDE] | > 20 µM | > 20 µM
CC(=O)c1ccc(S(=O)(=O)NC(=O)NC2CCCCC2)cc1 [ACETOHEXAMIDE] | > 20 µM | > 20 µM
CC(=O)NO [ACETOHYDROXAMIC ACID] | > 20 µM | > 20 µM
CC(=O)Oc1cc(C)c(OC(C)=O)c2ccccc12 [ACETOMENAPHTHONE] | > 20 µM | > 20 µM
CC(=O)Nc1c(I)cc(I)c(C(=O)O)c1I [ACETRIZOIC ACID] | > 20 µM | > 20 µM
CC(=O)N[C@@H](Cc1ccc(O)cc1)C(=O)O [ACETYL TYROSINE] | > 20 µM | > 20 µM
CC(=O)OCC[N+](C)(C)C [ACETYLCHOLINE] | > 20 µM | > 20 µM
CC(=O)N[C@@H](CS)C(=O)O [ACETYLCYSTEINE] | > 20 µM | > 20 µM
CC(=O)N[C@@H](Cc1c[nH]c2ccccc12)C(N)=O [ACETYLTRYPTOPHANAMIDE] | > 20 µM | > 20 µM
CC(=O)NCCCCCC(=O)O [ACEXAMIC ACID] | > 20 µM | > 20 µM
Cc1cnc(C(=O)O)c[n+]1[O-] [ACIPIMOX] | > 20 µM | > 20 µM
COc1cc(C)c(/C=C/C(C)=C/C=C/C(C)=C/C(=O)O)c(C)c1C [ACITRETIN] | > 20 µM | > 20 µM
CC(=O)OC(C)C(=O)OCC[N+](C)(C)C (stereo not drawn) [ACLATONIUM] | > 20 µM | > 20 µM
COc1c(N2CCC/C(=C(\F)CN)C2)c(F)cc2c(=O)c(C(=O)O)cn(C3CC3)c12 [ACORAFLOXACIN] | > 20 µM | > 20 µM
CC(=O)NCC1(c2ccccc2)CCN(CC2COc3ccccc3O2)CC1 (stereo not drawn) [ACOXATRINE] | > 20 µM | > 20 µM
CC(=O)OCC(=O)Nc1cc(C#N)cc(NC(=O)COC(C)=O)c1Cl [ACREOZAST] | > 20 µM | > 20 µM
Cc1ccc(/C(=C\CN2CCCC2)c2cccc(/C=C/C(=O)O)n2)cc1 [ACRIVASTINE] | > 20 µM | > 20 µM
CC(=O)Nc1ccc(CC(=O)O)cc1 [ACTARIT] | > 20 µM | > 20 µM
Nc1nc2c(ncn2COCCO)c(=O)[nH]1 [ACYCLOVIR] | > 20 µM | > 20 µM
CC(C)OC(=O)[C@H](C)N[P@](=O)(OC[C@@]1(F)O[C@@H](n2ccc(=O)[nH]c2=O)[C@](C)(O)[C@@H]1O)Oc1ccccc1 [ADAFOSBUVIR] | > 20 µM | > 20 µM
O=C(NCCN1CCN(c2ncccn2)CC1)C12CC3CC(CC(C3)C1)C2 [ADATANSERIN] | > 20 µM | > 20 µM

SMILES | IC50 | IC50 (read-out: pIC50 (converted))
C=CCn1c(=O)c2cnc(Nc3ccc(N4CCN(C)CC4)cc3)nc2n1-c1cccc(C(C)(C)O)n1 [ADAVOSERTIB] | > 20 µM | > 20 µM
Nc1[nH]cnc2ncnc1-2 [ADENINE] | > 20 µM | > 20 µM
Nc1ncnc2c1ncn2[C@@H]1O[C@H](COP(=O)(O)O)[C@@H](O)[C@H]1O [ADENOSINE PHOSPHATE] | > 20 µM | > 20 µM
Nc1ncnc2c1ncn2[C@@H]1O[C@H](COP(=O)(O)OP(=O)(O)OP(=O)(O)O)[C@@H](O)[C@H]1O [ADENOSINE TRIPHOSPHATE] | > 20 µM | > 20 µM
Nc1ncnc2c1ncn2[C@@H]1O[C@H](CO)[C@@H](O)[C@H]1O [ADENOSINE] | > 20 µM | > 20 µM
CC1(C)C(=O)Nc2cc3[nH]c(-c4ccncc4)nc3cc21 [ADIBENDAN] | > 20 µM | > 20 µM
CCN(CC)CCOC(=O)C(c1ccccc1)c1ccccc1 [ADIPHENINE] | > 20 µM | > 20 µM
CNCC(=O)c1ccc(O)c(O)c1 [ADRENALONE] | > 20 µM | > 20 µM
C[C@]12CCC(=O)C=C1CC[C@@H]1[C@@H]2C(=O)C[C@]2(C)C(=O)CC[C@@H]12 [ADRENOTERONE] | > 20 µM | > 20 µM
CCN1CCN(Cc2ccc(-c3cc4c(N[C@H](C)c5ccccc5)ncnc4[nH]3)cc2)CC1 [AEE-788] | > 20 µM | > 20 µM
CC(=O)NC(Cc1ccccc1)C(=O)O (stereo not drawn) [AFALANINE] | > 20 µM | > 20 µM
CN(C)C/C=C/C(=O)Nc1cc2c(Nc3ccc(F)c(Cl)c3)ncnc2cc1O[C@H]1CCOC1 [AFATINIB] | > 20 µM | > 20 µM
CC/C(=C(\c1ccc(O)cc1)c1ccc(OCCN(C)C)cc1)c1ccccc1 [AFIMOXIFENE] | > 20 µM | > 20 µM
Cc1c(CN(C)C(=O)/C=C/c2cnc3c(c2)CCC(=O)N3)oc2ccccc12 [AFN-1252] | > 20 µM | > 20 µM
CC(C)(C)NCC(O)COc1cccc2c1C(=O)OC2 (stereo not drawn) [AFUROLOL] | > 20 µM | > 20 µM
COc1ccc2cccc(CCNC(C)=O)c2c1 [AGOMELATINE] | > 20 µM | > 20 µM
NC(=O)c1ccc([N+](=O)[O-])cc1Cl [AKLOMIDE] | > 20 µM | > 20 µM
Nc1ncc(-c2ccncc2)nc1Nc1ccc2[nH]ccc2c1 [AKN-028] | > 20 µM | > 20 µM
CC(N)C(=O)OC(C)(C)Cc1ccc(Cl)cc1 (stereo not drawn) [ALAPROCLATE] | > 20 µM | > 20 µM
CCCSc1ccc2[nH]c(NC(=O)OC)nc2c1 [ALBENDAZOLE] | > 20 µM | > 20 µM
